# According to patent US7482453B2, “Process for the manufacture of (+)-(S)-clopidogrel bisulfate form-1” (Wockhardt Ltd., priority 2003, dated 2009):
# Counter-ions that a name gives are not always drawn.
# Assays:
# platelet aggregation = conditions: cited from earlier work; for Platelet aggregation inhibiting activity of the enantiomers: as described in EP 281459
# [1] = versus Aspirin; cited from earlier work
# [2] = Form-I obtained by the ethyl acetate process
smiles,measurement,setting,value
"COC(=O)C(c1ccccc1Cl)N1CCc2sccc2C1 (single isomer, unassigned) [levo-rotatory isomer]",Platelet aggregation inhibiting activity of the enantiomers,platelet aggregation,less active
"COC(=O)[C@H](c1ccccc1Cl)N1CCc2sccc2C1 [Clopidogrel hydrogen sulfate, bisulfate of methyl-(+)-(S)-α-(2-chlorophenyl)-4,5,6,7-tetrahydrothieno[3,2,-c]pyridine-5-acetate]",Platelet aggregation inhibiting activity of the enantiomers,platelet aggregation,excellent platelet aggregation inhibiting activity
COC(=O)[C@H](c1ccccc1Cl)N1CCc2sccc2C1 [Clopidogrel],Effectiveness in blocking platelet aggregation compared with Aspirin,"platelet aggregation; recent studies, versus Aspirin",more effective in blocking platelet aggregation than Asprin
same,Gastrointestinal bleeding compared with Aspirin,[1],much less gastrointestinal bleeding than Asprin
"COC(=O)[C@H](c1ccccc1Cl)N1CCc2sccc2C1 [Form-I, Methyl-(+)-(S)-α-(2-Chlorophenyl)-6,7-dihydrothieno[3,2-c]pyridine-5(4H)-acetate bisulfate Form-I]",Stability of the crystal form / conversion to other forms,[2],stable and does not convert to any other forms
